Reference: US20080254983A1, “Herbicide Composition” (NUFARM AUSTRALIA LIMITED, priority 2005, published 2008)

System: Annual Ryegrass (LOLRI)
Assay: Field trials throughout Australia, annual ryegrass (LOLRI) counts
Format: in vivo
Conditions: for % control: from mean vs untreated control; for Mean Plants/m2: mean of the seven trials
Description: A series of field trials were conducted throughout Australia to assess the performance of Example 5 composition (400 g/L trifluralin+117 g/L cinmethylin+UAN compatibiliser) versus the performance of either trifluralin or cinmethylin applied as standalone treatments.
All trials were sown under a knifepoint/reduced tillage seeding systems with trial design and management reflecting common district and grower practice. Rates of herbicide application were designed to allow comparison of the co-mixture and solvency package against the relative merits of either active ingredient applied alone in their currently available commercial formulation package (see table below).
Products were applied prior to sowing and were applied in water with industry accepted application equipment and spray nozzles.

Cc1ccccc1CO[C@@H]1C[C@@]2(C(C)C)CC[C@]1(C)O2 (racemic) [Cinmethylin]
LOLRI Plants/m2 (100 gai/ha, Vic Lentils 81-DAT): 18 Plants/m2
LOLRI Plants/m2 (100 gai/ha, Vic Lentils H02 51-DAT): 15 Plants/m2
LOLRI Plants/m2 (100 gai/ha, Vic Wheat 49-DAT): 69 Plants/m2
LOLRI Plants/m2 (100 gai/ha, Vic Wheat H03 79-DAT): 136 Plants/m2
LOLRI Plants/m2 (100 gai/ha, WA Canola W06-197 27-DAT): 419 Plants/m2
LOLRI Plants/m2 (100 gai/ha, WA Lupins W06-200 19-DAT): 503 Plants/m2
LOLRI Plants/m2 (100 gai/ha, WA Wheat W06-196 27-DAT): 300 Plants/m2
% control (100 gai/ha): 46%
Mean Plants/m2 (100 gai/ha): 208 Plants/m2
LOLRI Plants/m2 (200 gai/ha, Vic Lentils 81-DAT): 10 Plants/m2
LOLRI Plants/m2 (200 gai/ha, Vic Lentils H02 51-DAT): 8 Plants/m2
LOLRI Plants/m2 (200 gai/ha, Vic Wheat 49-DAT): 67 Plants/m2
LOLRI Plants/m2 (200 gai/ha, Vic Wheat H03 79-DAT): 78 Plants/m2
LOLRI Plants/m2 (200 gai/ha, WA Canola W06-197 27-DAT): 307 Plants/m2
LOLRI Plants/m2 (200 gai/ha, WA Lupins W06-200 19-DAT): 235 Plants/m2
LOLRI Plants/m2 (200 gai/ha, WA Wheat W06-196 27-DAT): 264 Plants/m2
% control (200 gai/ha): 64%
Mean Plants/m2 (200 gai/ha): 138 Plants/m2
LOLRI Plants/m2 (400 gai/ha, Vic Lentils 81-DAT): 14 Plants/m2
LOLRI Plants/m2 (400 gai/ha, Vic Lentils H02 51-DAT): 10 Plants/m2
LOLRI Plants/m2 (400 gai/ha, Vic Wheat 49-DAT): 22 Plants/m2
LOLRI Plants/m2 (400 gai/ha, Vic Wheat H03 79-DAT): 19 Plants/m2
LOLRI Plants/m2 (400 gai/ha, WA Canola W06-197 27-DAT): 324 Plants/m2
LOLRI Plants/m2 (400 gai/ha, WA Lupins W06-200 19-DAT): 124 Plants/m2
LOLRI Plants/m2 (400 gai/ha, WA Wheat W06-196 27-DAT): 229 Plants/m2
% control (400 gai/ha): 73%
Mean Plants/m2 (400 gai/ha): 106 Plants/m2

CCCN(CCC)c1c([N+](=O)[O-])cc(C(F)(F)F)cc1[N+](=O)[O-] [Trifluralin, trifluralin]
LOLRI Plants/m2 (720 gai/ha, Vic Lentils 81-DAT): 26 Plants/m2
LOLRI Plants/m2 (720 gai/ha, Vic Lentils H02 51-DAT): 21 Plants/m2
LOLRI Plants/m2 (720 gai/ha, Vic Wheat 49-DAT): 105 Plants/m2
LOLRI Plants/m2 (720 gai/ha, Vic Wheat H03 79-DAT): 168 Plants/m2
LOLRI Plants/m2 (720 gai/ha, WA Canola W06-197 27-DAT): 264 Plants/m2
LOLRI Plants/m2 (720 gai/ha, WA Lupins W06-200 19-DAT): 224 Plants/m2
LOLRI Plants/m2 (720 gai/ha, WA Wheat W06-196 27-DAT): 191 Plants/m2
% control (720 gai/ha): 63%
Mean Plants/m2 (720 gai/ha): 143 Plants/m2
LOLRI Plants/m2 (960 gai/ha, Vic Lentils 81-DAT): 22 Plants/m2
LOLRI Plants/m2 (960 gai/ha, Vic Lentils H02 51-DAT): 19 Plants/m2
LOLRI Plants/m2 (960 gai/ha, Vic Wheat 49-DAT): 10 Plants/m2
LOLRI Plants/m2 (960 gai/ha, Vic Wheat H03 79-DAT): 22 Plants/m2
LOLRI Plants/m2 (960 gai/ha, WA Canola W06-197 27-DAT): 208 Plants/m2
LOLRI Plants/m2 (960 gai/ha, WA Lupins W06-200 19-DAT): 169 Plants/m2
LOLRI Plants/m2 (960 gai/ha, WA Wheat W06-196 27-DAT): 207 Plants/m2
% control (960 gai/ha): 76%
Mean Plants/m2 (960 gai/ha): 94 Plants/m2
LOLRI Plants/m2 (1440 gai/ha, Vic Lentils 81-DAT): 23 Plants/m2
LOLRI Plants/m2 (1440 gai/ha, Vic Lentils H02 51-DAT): 14 Plants/m2
LOLRI Plants/m2 (1440 gai/ha, Vic Wheat 49-DAT): 29 Plants/m2
LOLRI Plants/m2 (1440 gai/ha, Vic Wheat H03 79-DAT): 33 Plants/m2
LOLRI Plants/m2 (1440 gai/ha, WA Canola W06-197 27-DAT): 156 Plants/m2
LOLRI Plants/m2 (1440 gai/ha, WA Lupins W06-200 19-DAT): 184 Plants/m2
LOLRI Plants/m2 (1440 gai/ha, WA Wheat W06-196 27-DAT): 135 Plants/m2
% control (1440 gai/ha): 79%
Mean Plants/m2 (1440 gai/ha): 82 Plants/m2
